Activity calls are given as the source filed them. The rule behind the calls is not given here.
Key:
[1] = biological target: T1, Sodium/glucose cotransporter 2 (Homo sapiens, UniProt P31639); test: Inhibition of human SGLT2 expressed in CHO-K1 cells assessed as reduction in [14C]AMG uptake after 120 mins by scintillation counting method; type: cell-based
T1 sequence (P31639 whole entry): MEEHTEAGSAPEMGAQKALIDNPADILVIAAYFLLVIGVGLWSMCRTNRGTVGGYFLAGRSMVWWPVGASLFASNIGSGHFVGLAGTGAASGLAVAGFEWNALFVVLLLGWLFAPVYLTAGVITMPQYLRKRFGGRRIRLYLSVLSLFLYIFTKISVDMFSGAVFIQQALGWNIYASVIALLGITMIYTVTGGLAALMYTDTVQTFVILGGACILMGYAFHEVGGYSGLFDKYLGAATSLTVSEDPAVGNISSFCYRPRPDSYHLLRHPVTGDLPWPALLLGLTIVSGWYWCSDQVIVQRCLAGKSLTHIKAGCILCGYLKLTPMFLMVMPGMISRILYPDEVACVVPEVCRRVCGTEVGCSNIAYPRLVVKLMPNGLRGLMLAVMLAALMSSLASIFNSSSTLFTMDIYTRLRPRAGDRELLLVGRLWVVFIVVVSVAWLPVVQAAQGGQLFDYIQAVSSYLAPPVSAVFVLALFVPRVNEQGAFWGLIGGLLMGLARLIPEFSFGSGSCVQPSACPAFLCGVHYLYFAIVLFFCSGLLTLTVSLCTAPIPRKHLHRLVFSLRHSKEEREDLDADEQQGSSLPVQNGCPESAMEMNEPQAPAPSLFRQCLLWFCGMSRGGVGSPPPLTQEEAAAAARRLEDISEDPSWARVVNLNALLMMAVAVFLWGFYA

CHO-K1 = test: Selectivity ratio of EC50 for human SGLT1 expressed in CHO-K1 cells to EC50 for human SGLT2 expressed in CHO-K1 cells; type: cell-based
Rattus norvegicus [2] = test: Induction of glucosuria in Sprague-Dawley rat assessed as increase in glucose excretion at 50 mg/kg administered as single dose via oral gavage after 24 hrs by oral glucose tolerance test; type: functional, organism-based
Rattus norvegicus [3] = test: Induction of glucosuria in Sprague-Dawley rat assessed as increase in glucose excretion per 200 g body weight at 50 mg/kg, administered as single dose via oral gavage after 24 hrs by oral glucose tolerance test (reference value: 0.23 mg); type: functional
[4] = Half life in Sprague-Dawley rat at 1.1 mg/kg, iv administered via bolus injection by LC-MS/MS analysis; type: ADME, organism-based; conditions: in vivo
[5] = Volume of distribution at steady state in Sprague-Dawley rat at 1.1 mg/kg, iv administered via bolus injection measured at 2 to 5 mins post dose by LC-MS/MS analysis; type: ADME, organism-based; conditions: in vivo, read-out: Vdss
[6] = Clearance in Sprague-Dawley rat at 1.1 mg/kg, iv administered via bolus injection measured at 2 to 5 mins post dose by LC-MS/MS analysis; type: ADME, organism-based; conditions: in vivo
[7] = AUC (0 to infinity) in Sprague-Dawley rat at 1.1 mg/kg, iv administered via bolus injection measured at 2 to 5 mins post dose by LC-MS/MS analysis; type: ADME, organism-based; parameters: dose 1.1 mg/kg, route intravenous, time infinity; conditions: in vivo
[8] = Half life in Sprague-Dawley rat at 1.1 mg/kg, po by LC-MS/MS analysis; type: ADME, organism-based; conditions: in vivo
[9] = Cmax in Sprague-Dawley rat at 1.1 mg/kg, po measured at 15 mins to 24 hrs post dose by LC-MS/MS analysis; type: ADME, organism-based; parameters: dose 1.1 mg/kg, route oral; conditions: in vivo
[10] = Tmax in Sprague-Dawley rat at 1.1 mg/kg, po measured at 15 mins to 24 hrs post dose by LC-MS/MS analysis; type: ADME, organism-based; conditions: in vivo
[11] = AUC (0 to infinity) in Sprague-Dawley rat at 1.1 mg/kg, po measured at 15 mins to 24 hrs post dose by LC-MS/MS analysis; type: ADME, organism-based; parameters: dose 1.1 mg/kg, time infinity, route oral; conditions: in vivo
[12] = Oral bioavailability in Sprague-Dawley rat at 1.1 mg/kg measured at 15 mins to 24 hrs after drug challenge by LC-MS/MS analysis; type: ADME, organism-based; conditions: in vivo
Rattus norvegicus [13] = test: Reduction of blood glucose level in Sprague-Dawley rat at 50 mg/kg, po administered as single dose via oral gavage after 0.5 to 1 hr by oral glucose tolerance test; type: functional, organism-based
Rattus norvegicus [14] = test: Effect on glucose AUC in Sprague-Dawley rat at 50 mg/kg, po administered as single dose via oral gavage after 0.5 to 1 hr by oral glucose tolerance test; type: functional, organism-based

Row | SMILES | EC50 [1] [µM] | further results
1 | CCOC(=O)CNC(=S)NC[C@H]1O[C@@H](n2cc(Cc3ccc(C4CC4)cc3)c3c(Cl)cccc32)[C@H](O)[C@@H](O)[C@@H]1O | 0.286 | Ratio EC50 (CHO-K1): 3
2 | O=C(NCCCl)NC[C@H]1O[C@@H](n2cc(Cc3ccc(C4CC4)cc3)c3c(Cl)cccc32)[C@H](O)[C@@H](O)[C@@H]1O | 0.598 | 
3 | CCOC(=O)C(=O)NC[C@H]1O[C@@H](n2cc(Cc3ccc(C4CC4)cc3)c3c(Cl)cccc32)[C@H](O)[C@@H](O)[C@@H]1O | 0.249 | 
4 | O=C(Cc1cccs1)NC[C@H]1O[C@@H](n2cc(Cc3ccc(C4CC4)cc3)c3c(Cl)cccc32)[C@H](O)[C@@H](O)[C@@H]1O | 0.499 | 
5 | O=C(CCl)NC[C@H]1O[C@@H](n2cc(Cc3ccc(C4CC4)cc3)c3c(Cl)cccc32)[C@H](O)[C@@H](O)[C@@H]1O | 0.113 | 
6 | O[C@@H]1[C@@H](O)[C@H](n2cc(Cc3ccc(C4CC4)cc3)c3c(Cl)cccc32)OC[C@H]1O |  | Ratio EC50 (CHO-K1): 2
7 | O[C@@H]1[C@@H](O)[C@H](n2cc(Cc3ccc(C4CC4)cc3)c3c(Cl)cccc32)O[C@H](Cn2cc(C3CC3)nn2)[C@H]1O | 0.359 | 
8 | CC(C)C(=O)NC[C@H]1O[C@@H](n2cc(Cc3ccc(C4CC4)cc3)c3c(Cl)cccc32)[C@H](O)[C@@H](O)[C@@H]1O | 0.649 | 
9 | O=C(O)c1cn(C[C@H]2O[C@@H](n3cc(Cc4ccc(C5CC5)cc4)c4c(Cl)cccc43)[C@H](O)[C@@H](O)[C@@H]2O)nn1 | 2.72 | 
10 | COC(=O)CC(=O)NC[C@H]1O[C@@H](n2cc(Cc3ccc(C4CC4)cc3)c3c(Cl)cccc32)[C@H](O)[C@@H](O)[C@@H]1O | 0.039 | Activity (Rattus norvegicus [2]): inactive
11 | O=C(NCCCCl)NC[C@H]1O[C@@H](n2cc(Cc3ccc(C4CC4)cc3)c3c(Cl)cccc32)[C@H](O)[C@@H](O)[C@@H]1O | 0.151 | Ratio EC50 (CHO-K1): 6
12 | O=C(NC[C@H]1O[C@@H](n2cc(Cc3ccc(C4CC4)cc3)c3c(Cl)cccc32)[C@H](O)[C@@H](O)[C@@H]1O)C1CC1 | 0.552 | 
13 | O[C@@H]1[C@@H](O)[C@H](n2cc(Cc3ccc(C4CC4)cc3)c3c(Cl)cccc32)O[C@H](Cn2cc(C3CCCC3)nn2)[C@H]1O | 1.59 | 
14 | O=C(CSc1ccccc1)NC[C@H]1O[C@@H](n2cc(Cc3ccc(C4CC4)cc3)c3c(Cl)cccc32)[C@H](O)[C@@H](O)[C@@H]1O | 2.09 | 
15 | COc1ccc(NC(=S)NC[C@H]2O[C@@H](n3cc(Cc4ccc(C5CC5)cc4)c4c(Cl)cccc43)[C@H](O)[C@@H](O)[C@@H]2O)cc1 | 0.485 | 
16 | CCOC(=O)NC(=O)NC[C@H]1O[C@@H](n2cc(Cc3ccc(C4CC4)cc3)c3c(Cl)cccc32)[C@H](O)[C@@H](O)[C@@H]1O | 1 | 
17 | O=C(O)CC(=O)NC[C@H]1O[C@@H](n2cc(Cc3ccc(C4CC4)cc3)c3c(Cl)cccc32)[C@H](O)[C@@H](O)[C@@H]1O | 3.44 | 
18 | COc1ccc(C(=O)NC[C@H]2O[C@@H](n3cc(Cc4ccc(C5CC5)cc4)c4c(Cl)cccc43)[C@H](O)[C@@H](O)[C@@H]2O)cc1 | 2.37 | 

Row | SMILES | EC50 [1] [µM] | further results
19 | COC(=O)c1cn(C[C@H]2O[C@@H](n3cc(Cc4ccc(C5CC5)cc4)c4c(Cl)cccc43)[C@H](O)[C@@H](O)[C@@H]2O)nn1 | 0.119 | 
20 | CC(=O)NC[C@H]1O[C@@H](n2cc(Cc3ccc(C4CC4)cc3)c3c(Cl)cccc32)[C@H](O)[C@@H](O)[C@@H]1O | 0.042 | Activity (Rattus norvegicus [3]): 101 mg; half-life [4]: 3.2 h; Vd [5]: 2.7 L/kg; clearance [6]: 1.13 L/h/kg; AUC(0-inf) [7]: 0.996 µg·h/mL; half-life [8]: 2.5 h; Cmax [9]: 0.0252 µg/mL; Tmax [10]: 1.2 h; AUC(0-inf) [11]: 0.099 µg·h/mL; bioavailability [12]: 10%; Activity (Rattus norvegicus [13]): Active; Activity (Rattus norvegicus [14]): inactive
21 | CCOC(=O)CC(=O)NC[C@H]1O[C@@H](n2cc(Cc3ccc(C4CC4)cc3)c3c(Cl)cccc32)[C@H](O)[C@@H](O)[C@@H]1O | 0.118 | 
22 | O=C(NC[C@H]1O[C@@H](n2cc(Cc3ccc(C4CC4)cc3)c3c(Cl)cccc32)[C@H](O)[C@@H](O)[C@@H]1O)c1ccno1 | 0.387 | 
23 | CCOC(=O)CNC(=O)NC[C@H]1O[C@@H](n2cc(Cc3ccc(C4CC4)cc3)c3c(Cl)cccc32)[C@H](O)[C@@H](O)[C@@H]1O | 0.515 | 
24 | CCOc1cn(C[C@H]2O[C@@H](n3cc(Cc4ccc(C5CC5)cc4)c4c(Cl)cccc43)[C@H](O)[C@@H](O)[C@@H]2O)nn1 | 0.655 | 
25 | O=C(CCBr)NC[C@H]1O[C@@H](n2cc(Cc3ccc(C4CC4)cc3)c3c(Cl)cccc32)[C@H](O)[C@@H](O)[C@@H]1O | 0.151 | 
26 | O=C(NC[C@H]1O[C@@H](n2cc(Cc3ccc(C4CC4)cc3)c3c(Cl)cccc32)[C@H](O)[C@@H](O)[C@@H]1O)c1ccc(CCl)cc1 | 2.59 | 
27 | CNC(=S)NC[C@H]1O[C@@H](n2cc(Cc3ccc(C4CC4)cc3)c3c(Cl)cccc32)[C@H](O)[C@@H](O)[C@@H]1O | 0.315 | 
28 | COC(=O)C(=O)NC[C@H]1O[C@@H](n2cc(Cc3ccc(C4CC4)cc3)c3c(Cl)cccc32)[C@H](O)[C@@H](O)[C@@H]1O | 0.284 | Ratio EC50 (CHO-K1): 20
29 | COCCCNC(=S)NC[C@H]1O[C@@H](n2cc(Cc3ccc(C4CC4)cc3)c3c(Cl)cccc32)[C@H](O)[C@@H](O)[C@@H]1O | 0.586 | 
30 | NC[C@H]1O[C@@H](n2cc(Cc3ccc(C4CC4)cc3)c3c(Cl)cccc32)[C@H](O)[C@@H](O)[C@@H]1O | 0.237 | Ratio EC50 (CHO-K1): 9
31 | O=C(NC[C@H]1O[C@@H](n2cc(Cc3ccc(C4CC4)cc3)c3c(Cl)cccc32)[C@H](O)[C@@H](O)[C@@H]1O)C(Cl)Cl | 0.184 | 
32 | OC[C@H]1O[C@@H](n2cc(Cc3ccc(C4CC4)cc3)c3c(Cl)cccc32)[C@H](O)[C@@H](O)[C@@H]1O | 0.014 | Ratio EC50 (CHO-K1): 2
33 | CCOC(=O)CCC(=O)NC[C@H]1O[C@@H](n2cc(Cc3ccc(C4CC4)cc3)c3c(Cl)cccc32)[C@H](O)[C@@H](O)[C@@H]1O | 0.588 | 
34 | CCNC(=S)NC[C@H]1O[C@@H](n2cc(Cc3ccc(C4CC4)cc3)c3c(Cl)cccc32)[C@H](O)[C@@H](O)[C@@H]1O | 0.716 | 
35 | O=C(CCCl)NC[C@H]1O[C@@H](n2cc(Cc3ccc(C4CC4)cc3)c3c(Cl)cccc32)[C@H](O)[C@@H](O)[C@@H]1O | 0.16 | 
